One data set deals with HIV-1. Briefly: In vitro protein binding-adjusted 95% effective concentration (paEC95) and inhibitory quotient. It counts as cell-based.
The conditions of data set [1]: in vivo, sc; cited from earlier work.
The test system of the next data set is HIV. Particulars: twice-yearly SC 927 mg (two 1.5 mL injections of 309 mg/mL), oral loading 600 mg days 1 and 2; cited from earlier work.
For data set [2] the following is noted: cited from earlier work.

The values that follow come from US20260014130A1, “FORMULATIONS OF CAPSID INHIBITOR” (Gilead Sciences, Inc., priority 2024, published 2026).

For the molecule `CC(C)(C#Cc1ccc(-c2ccc(Cl)c3c(NS(C)(=O)=O)nn(CC(F)(F)F)c23)c([C@H](Cc2cc(F)cc(F)c2)NC(=O)Cn2nc(C(F)(F)F)c3c2C(F)(F)[C@@H]2C[C@H]32)n1)S(C)(=O)=O` [lenacapavir], the “in vitro paEC95 (protein binding-adjusted 95% effective concentration)” value in the data set with HIV-1 was 3.87 ng/mL. In the data set with HIV-1 (plasma concentration threshold), the “inhibitory quotient-4 (IQ4; 4-fold in-vitro protein binding-adjusted 95% effective concentration)” value amounted to 15.5 ng/mL. Moreover, the “highest observed mean concentration” value in data set [1] is 72.1 ng/mL. Moreover, in the data set on HIV, the “efficacy in cisgender men and gender-diverse people” value is on record as 99.9%; the “efficacy in cisgender women” value was 100%. The “systemic lenacapavir exposures relative to those achieved with the intramuscular formulations” value in data set [2] (observed previously, well tolerated) is given as “approximately 3 fold”. In addition, the “mean Cmax” value in data set [2] (supratherapeutic total dose of 9600 mg of oral lenacapavir) was 1070.4 ng/mL.
